The values that follow are results of earlier work, collected in patent publication US7718658B2 (priority 2004, dated 2010).

This series relates to neuropathic pain. To be noted: in vivo.

For the compound `NCC1(CC(=O)O)CCCCC1` [Gabapentin], the “share of patients in whom it works” value is 60%.
